{"source": "patent US20250214968A1", "about": "“Novel Salt of GLP-1 Receptor Agonist Compound, Preparation Method Thereof and Pharmaceutical Composition Comprising Thereof” (Ildong Pharmaceutical Co., Ltd., priority 2022, published 2025)", "assay_type_in_all_cases": "physicochemical", "key": {"[1]": {"test": "Thermogravimetric (TGA) analysis", "settings": "TGA 20° C. to 350° C., 10° C./min, nitrogen", "experimental": "Thermogravimetric (TGA) analysis was performed on the tromethamine salt prepared in Example 3, the free base prepared in Comparative Example 1, the L-arginine salt prepared in Comparative Example 2, the meglumine salt prepared in Comparative Example 3, and the potassium salt prepared in Comparative Example 4. Thermogravimetric analysis was performed from 20° C. to 350° C. at a heating rate of 10° C./min under nitrogen conditions using TGA Q50 manufactured by TA Instruments, Inc. The weight loss at about 170° C. or less for each salt was measured, and results thereof are shown in FIG. 2 (tromethamine salt), FIG. 3 (free base), FIG. 6 (L-arginine salt), FIG. 9 (meglumine salt), and 12 (potassium salt), and summarized in Table 4 below."}, "[2]": {"test": "Hygroscopicity test by DVS, 25° C. and 90% RH", "settings": "moisture sorption", "experimental": "Samples in amounts of about 5 to 25 mg were tested for moisture sorption/desorption profiles at 25° C. under a 0% to 90% relative humidity (RH) cycle according to the pa-rameters in Table 2 below using DVS Intrinsic 1 manufactured by Surface Measurement System Ltd.\nHygroscopicity was measured for the tromethamine salt prepared in Example 3, the L-arginine salt prepared in Comparative Example 2, the meglumine salt prepared in Comparative Example 3, and the potassium salt prepared in Comparative Example 4. Results thereof are shown in FIGS. 14 to 17, respectively, and the results of the weight percent gain according to moisture sorption are shown in Table 6 below."}, "[3]": {"test": "Drug stability evaluation under stress condition (80° C., open)", "experimental": "The free base and the tromethamine salt of (S)-2-((4-(6-((5-cyanopyridin-2-yl)methoxy)pyridin-2-yl)piperazin-1-yl)methyl)-1-(oxetan-2-ylmethyl)-1H-benzo[d]imidazol-6-carboxylic acid were weighed into each vial and stored under stress conditions to investigate stability.\nThe stress conditions are as follows: • high temperature open room condition: 80° C.;\nSamples were analyzed by XRPD and HPLC at the onset (Day 0) and week 1 of storage."}, "[4]": {"test": "XRPD analysis of crystal form under various relative humidity conditions", "settings": "20° C.", "experimental": "The X-ray powder diffraction (XRPD) pattern was measured using DYY884-AERIS-300 manufactured by PANalytical company, and analyzed with a step size of about 0.02° over the range of about 2° to 45° in the […].\nThe XRPD analysis of the crystalline form 1 of the tromethamine salt of (S)-2-((4-(6-((5-cyanopyridin-2-yl)methoxy)pyridin-2-yl)piperazin-1-yl)methyl)-1-(oxetan-2-ylmethyl)-1H-benzo[d]imidazol-6-carboxylic acid was performed under the conditions of varying relative humidity from 15% RH to 90% RH at 20° C., and the changes in the crystalline form according to the relative humidity were confirmed."}, "[5]": {"test": "Hygroscopicity test, European Pharmacopoeia conditions, 25° C. and 80% RH", "settings": "stored 24 hours at 25° C., 80% RH (EP conditions)", "experimental": "Under the hygroscopicity test conditions of the European Pharmacopoeia (EP), the tromethamine salt prepared in Example 3 and the free base prepared in Comparative Example 1 were stored for 24 hours at a temperature of 25° C. and a relative humidity of 80%, and then the mass change of the sample due to moisture sorption was measured."}, "[6]": {"test": "Solubility in water and bio-relevant media", "settings": "for Final pH: after 24 hours stirring; for solubility at 24 h: thermodynamic from solid, room temperature, 2 mg/mL loading", "experimental": "Solubility in water and bio-relevant media, i.e., stimulated gastric fluid (SGF), fasted state simulated intestinal fluid (FaSSIF), and fed state simulated intestinal fluid (FeSSIF) of the free base and the tromethamine salt of (S)-2-((4-(6-((5-cyanopyridin-2-yl)methoxy)pyridin-2-yl)piperazin-1-yl)methyl)-1-(oxetan-2-ylmethyl)-1H-benzo[d]imidazol-6-carboxylic acid was confirmed.\nBuffers for the bio-relevant media were prepared as follows.\nWater: Laboratory Milli-Q purified water.\nSGF (Stimulated Gastric Fluid): 2.0 g of sodium chloride and 7 mL of hydrochloric acid dissolved in 1000 mL of water was used.\nFaSSIF (Fasted State Simulated Intestinal Fluid): A commercial product purchased from Bio-Relevant Company and manufactured according to instructions was used.\nFeSSIF (Fed State Simulated Intestinal Fluid): A commercial product purchased from Bio-Relevant Company and prepared according to instructions was used.\nFor the experiment, about 2 mg of compound (2 mg as free base form) was weighed into each glass vial and then 1 mL of medium was added (final concentration of 2 mg/mL). Then, the sample was continuously stirred for 24 hours in a magnetic stirrer at a speed of […] at room temperature. Then, the pH was measured and the mixture was filtered using MultiScreen®HTS-HV 96-well plate (Merck; 0.45 μm hydrophilic low protein binding Durapore® membrane). Solubility was analyzed using HPLC."}, "[7]": {"settings": "80° C. (Week 1), high temperature open"}, "[8]": {"settings": "simulated gastric fluid, SGF (pH 2.0)"}}, "note": "Counter-ions that a name gives are not always drawn."}
{"smiles": "N#Cc1ccc(COc2cccc(N3CCN(Cc4nc5ccc(C(=O)O)cc5n4C[C@@H]4CCO4)CC3)n2)nc1.N=C(N)NCCC[C@H](N)C(=O)O", "note": "[Comparative Example 2, L-arginine salt of (S)-2-((4-(6-((5-cyanopyridin-2-yl)methoxy)pyridin-2-yl)piperazin-1-yl)methyl)-1-(oxetan-2-ylmethyl)-1H-benzo[d]imidazol-6-carboxylic acid]", "values": [{"measurement": "Weight loss (%) at about 170° C. or less", "setting": "[1]", "value": 7.368, "unit": "%"}, {"measurement": "Weight percent gain (%)", "setting": "[2]", "value": 6.84, "unit": "%"}]}
{"smiles": "CNC[C@H](O)[C@@H](O)[C@H](O)[C@H](O)CO.N#Cc1ccc(COc2cccc(N3CCN(Cc4nc5ccc(C(=O)O)cc5n4C[C@@H]4CCO4)CC3)n2)nc1", "note": "[Comparative Example 3, meglumine salt of (S)-2-((4-(6-((5-cyanopyridin-2-yl)methoxy)pyridin-2-yl)piperazin-1-yl)methyl)-1-(oxetan-2-ylmethyl)-1H-benzo[d]imidazol-6-carboxylic acid]", "values": [{"measurement": "Weight loss (%) at about 170° C. or less", "setting": "[1]", "value": 2.8132, "unit": "%"}, {"measurement": "Weight percent gain (%)", "setting": "[2]", "value": 17.77, "unit": "%"}]}
{"smiles": "N#Cc1ccc(COc2cccc(N3CCN(Cc4nc5ccc(C(=O)O)cc5n4C[C@@H]4CCO4)CC3)n2)nc1", "note": "[Example 3, tromethamine salt of (S)-2-((4-(6-((5-cyanopyridin-2-yl)methoxy)pyridin-2-yl)piperazin-1-yl)methyl)-1-(oxetan-2-ylmethyl)-1H-benzo[d]imidazol-6-carboxylic acid]", "values": [{"measurement": "Chemical stability by HPLC purity %", "setting": "[3]; [7]", "value": 97.32, "unit": "%"}, {"measurement": "Chemical stability by HPLC purity %", "setting": "[3]; Onset (Day 0)", "value": 97.99, "unit": "%"}, {"measurement": "change in the XRPD pattern", "setting": "[3]; harsh conditions, 80° C., week 1", "value": "did not show any change in the XRPD pattern"}, {"measurement": "purity change rate", "setting": "[3]; harsh conditions, 80° C., week 1 vs day 0", "value": "less than 1%"}, {"measurement": "Crystalline Form", "setting": "[4]; 15% RH, during desorption", "value": "Form 1"}, {"measurement": "Crystalline Form", "setting": "[4]; 15% RH, increasing humidity", "value": 1}, {"measurement": "Crystalline Form", "setting": "[4]; 20% RH, increasing humidity", "value": 1}, {"measurement": "Crystalline Form", "setting": "[4]; 25% RH, increasing humidity", "value": 1}, {"measurement": "Crystalline Form", "setting": "[4]; 30% RH, during desorption", "value": "Form 1"}, {"measurement": "Crystalline Form", "setting": "[4]; 30% RH, increasing humidity", "value": 1}, {"measurement": "Crystalline Form", "setting": "[4]; 35% RH, increasing humidity", "value": 1}, {"measurement": "Crystalline Form", "setting": "[4]; 40% RH, during desorption", "value": "Form 1"}, {"measurement": "Crystalline Form", "setting": "[4]; 40% RH, increasing humidity", "value": 1}, {"measurement": "Crystalline Form", "setting": "[4]; 45% RH, increasing humidity", "value": 1}, {"measurement": "Crystalline Form", "setting": "[4]; 50% RH, during desorption", "value": "intermediate"}, {"measurement": "Crystalline Form", "setting": "[4]; 50% RH, increasing humidity", "value": 1}, {"measurement": "Crystalline Form", "setting": "[4]; 55% RH, increasing humidity", "value": 1, "unit": "A"}, {"measurement": "Crystalline Form", "setting": "[4]; 60% RH, increasing humidity", "value": 1, "unit": "A"}, {"measurement": "Weight percent gain (%)", "setting": "[5]", "value": 0.22, "unit": "%"}, {"measurement": "Weight loss (%) at about 170° C. or less", "setting": "[1]", "value": 0.1207, "unit": "%"}, {"measurement": "Final pH", "setting": "[6]; FaSSIF (pH 6.5)", "value": 6.50}, {"measurement": "Final pH", "setting": "[6]; FeSSIF (pH 5.8)", "value": 5.85}, {"measurement": "Final pH", "setting": "[6]; SGF (pH 2.0)", "value": 1.90}, {"measurement": "Final pH", "setting": "[6]; Water", "value": 7.21}, {"measurement": "solubility at 24 h", "setting": "[6]; [8]", "value": 710, "unit": "µg/mL"}, {"measurement": "solubility at 24 h", "setting": "[6]; FaSSIF (pH 6.5)", "value": "> 2000", "unit": "µg/mL"}, {"measurement": "solubility at 24 h", "setting": "[6]; FeSSIF (pH 5.8)", "value": 336, "unit": "µg/mL"}, {"measurement": "solubility at 24 h", "setting": "[6]; Water", "value": "> 2000", "unit": "µg/mL"}, {"measurement": "Weight percent gain (%)", "setting": "[2]", "value": 1.44, "unit": "%"}, {"measurement": "Weight percent gain (%)", "setting": "[2]; listed as tromethamine salt", "value": "about 1.44%"}]}
{"smiles": "N#Cc1ccc(COc2cccc(N3CCN(Cc4nc5ccc(C(=O)O)cc5n4C[C@@H]4CCO4)CC3)n2)nc1", "note": "[Comparative Example 1, (S)-2-((4-(6-((5-cyanopyridin-2-yl)methoxy)pyridin-2-yl)piperazin-1-yl)methyl)-1-(oxetan-2-ylmethyl)-1H-benzo[d]imidazol-6-carboxylic acid]", "values": [{"measurement": "Chemical stability by HPLC purity %", "setting": "[3]; [7]", "value": 96.70, "unit": "%"}, {"measurement": "Chemical stability by HPLC purity %", "setting": "[3]; Onset (Day 0)", "value": 97.84, "unit": "%"}, {"measurement": "Weight percent gain (%)", "setting": "[5]", "value": 2.7, "unit": "%"}, {"measurement": "Weight loss (%) at about 170° C. or less", "setting": "[1]", "value": 3.323, "unit": "%"}, {"measurement": "Final pH", "setting": "[6]; FaSSIF (pH 6.5)", "value": 6.49}, {"measurement": "Final pH", "setting": "[6]; FeSSIF (pH 5.8)", "value": 5.70}, {"measurement": "Final pH", "setting": "[6]; SGF (pH 2.0)", "value": 1.74}, {"measurement": "Final pH", "setting": "[6]; Water", "value": 6.64}, {"measurement": "solubility at 24 h", "setting": "[6]; [8]", "value": 850, "unit": "µg/mL"}, {"measurement": "solubility at 24 h", "setting": "[6]; FaSSIF (pH 6.5)", "value": 160, "unit": "µg/mL"}, {"measurement": "solubility at 24 h", "setting": "[6]; FeSSIF (pH 5.8)", "value": 63, "unit": "µg/mL"}, {"measurement": "solubility at 24 h", "setting": "[6]; Water", "value": 106, "unit": "µg/mL"}]}
{"smiles": "N#Cc1ccc(COc2cccc(N3CCN(Cc4nc5ccc(C(=O)[O-])cc5n4C[C@@H]4CCO4)CC3)n2)nc1.[K+]", "note": "[Comparative Example 4, potassium salt of (S)-2-((4-(6-((5-cyanopyridin-2-yl)methoxy)pyridin-2-yl)piperazin-1-yl)methyl)-1-(oxetan-2-ylmethyl)-1H-benzo[d]imidazol-6-carboxylic acid]", "values": [{"measurement": "Weight loss (%) at about 170° C. or less", "setting": "[1]", "value": 4.284, "unit": "%"}, {"measurement": "Weight percent gain (%)", "setting": "[2]", "value": 5.97, "unit": "%"}]}
